In patent US6537803B1, “Amino acid transporters and uses” (Oregon Health Sciences University, priority 1993, dated 2003):

target: T1, human EAAT2 (Homo sapiens, UniProt P43004); assay: inhibition of [3H]-L-glutamate uptake in COS-7 cells expressing EAAT2; assay type: cell-based; details: uptake of 1 μM [3H]-L-glutamate; [S] << Km, Ki does not differ significantly from measured IC50; read-out: Ki, glutamate uptake inhibition constant, EAAT2
T1 construct: expressed in transfected cells; host or cells: COS-7 cells, pCMV5 construct, DEAE-dextran transient transfection
Text: (§1) DNA fragments comprising the coding sequences of the novel glutamate transporter genes of the invention were excised from the POTV constructs described in Example 3 and subcloned into the mammalian expression plasmid pCMV5 (Anderson et al., 1989, J. Biol. Chem. 264: 8222-8229). These mammalian expression constructs were used for transient expression assays of glutamate transporter protein function after transfection of each of these constructs into COS-7 cells (Gluzman, 1981, Cell 23: 175-182).
(§2) Each of the pCMV5 constructs corresponding to EAAT1, EAAT2 and EAAT3 were introduced into COS-7 cells by DEAE-dextran facilitated transfection (see Sambrook et al., ibid.). Two day following transfection, the transfected cells were washed three times in phosphate-buffered saline (PBS) and then incubated with a mixture of radiolabeled amino acid ([^3H]-L-glutamate or [^3H]-D-aspartate; Dupont-NEN) and non-radiolabeled amino acid for 10 min. After incubation, the cells were washed three times with ice-cold PBS, solubilized with a solution of 0.1% sodium dodecyl sulfate (SDS) and the amount of radioactivity associated with the cells determined using standard liquid scintillation counting methods.
(§3) COS-7 cell cultures transformed with pCMVS-human glutamate transporter constructs as described in Example 4 were used to characterize the pharmacological properties of each of these transporter proteins relative to a variety of known glutamate transporter inhibitors. These assays were performed essentially as described in Example 4, with the exception that varying amounts of each of a number of known inhibitor compounds were included in the incubations.
(§4) In these experiments, uptake of 1 μM of […] was determined in the presence of the indicated amounts of each of the inhibitors.

T1 sequence (P43004 whole entry): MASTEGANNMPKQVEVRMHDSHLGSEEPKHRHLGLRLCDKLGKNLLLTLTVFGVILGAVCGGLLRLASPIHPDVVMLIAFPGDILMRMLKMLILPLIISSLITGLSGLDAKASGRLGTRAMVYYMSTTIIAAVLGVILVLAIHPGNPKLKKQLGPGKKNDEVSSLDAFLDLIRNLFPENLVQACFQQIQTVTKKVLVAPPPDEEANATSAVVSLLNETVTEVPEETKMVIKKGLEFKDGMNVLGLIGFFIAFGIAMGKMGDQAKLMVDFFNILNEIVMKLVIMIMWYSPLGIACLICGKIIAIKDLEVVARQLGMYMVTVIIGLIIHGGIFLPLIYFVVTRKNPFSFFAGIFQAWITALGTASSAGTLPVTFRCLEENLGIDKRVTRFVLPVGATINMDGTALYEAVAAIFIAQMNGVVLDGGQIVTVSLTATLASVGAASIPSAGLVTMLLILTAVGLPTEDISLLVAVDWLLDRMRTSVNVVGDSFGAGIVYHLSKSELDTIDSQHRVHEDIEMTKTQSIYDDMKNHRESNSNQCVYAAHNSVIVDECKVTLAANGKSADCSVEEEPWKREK

SMILES | Ki
N[C@@H](CS(=O)(=O)O)C(=O)O [L-cysteate] | 10 ± 2 µM

target: T2, human EAAT3 (Homo sapiens, UniProt P43005); assay: inhibition of [3H]-L-glutamate uptake in COS-7 cells expressing EAAT3; assay type: cell-based; details: uptake of 1 μM [3H]-L-glutamate; [S] << Km, Ki does not differ significantly from measured IC50; read-out: Ki, glutamate uptake inhibition constant, EAAT3
T2 construct: isolation of Clone GT11B containing a full-length open reading frame encoding EAAT3; expressed in transfected cells; host or cells: COS-7 cells, pCMV5 construct, DEAE-dextran transient transfection
T2 sequence (P43005 1-524): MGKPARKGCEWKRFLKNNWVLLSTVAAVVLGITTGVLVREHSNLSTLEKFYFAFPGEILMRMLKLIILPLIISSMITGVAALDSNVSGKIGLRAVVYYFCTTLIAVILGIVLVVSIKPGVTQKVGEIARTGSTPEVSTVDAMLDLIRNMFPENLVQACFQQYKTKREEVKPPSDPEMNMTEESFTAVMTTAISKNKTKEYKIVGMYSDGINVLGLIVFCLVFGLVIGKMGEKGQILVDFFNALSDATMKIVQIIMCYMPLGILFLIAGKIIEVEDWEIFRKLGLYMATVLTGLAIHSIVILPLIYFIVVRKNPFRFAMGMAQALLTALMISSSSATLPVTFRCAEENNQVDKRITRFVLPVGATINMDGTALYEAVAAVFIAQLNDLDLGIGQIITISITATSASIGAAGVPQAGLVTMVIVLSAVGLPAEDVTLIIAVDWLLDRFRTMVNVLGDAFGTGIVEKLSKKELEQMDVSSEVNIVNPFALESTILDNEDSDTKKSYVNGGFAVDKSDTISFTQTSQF
Text: as §1, §2, §3, §4

SMILES | Ki
N[C@@H](CS(=O)(=O)O)C(=O)O [L-cysteate] | 19 ± 9 µM

target: T3, human ASCT1 neutral amino acid transporter (Homo sapiens, UniProt P43007); assay: amino acid-induced inward current in voltage-clamped ASCT1-injected Xenopus oocytes; assay type: cell-based; details: L-stereoisomer; current normalized to the maximum response obtained with L-alanine; mean ± standard error
T3 construct: expressed in transfected cells; host or cells: Xenopus laevis oocytes injected with in vitro transcribed RNA (pOTV vector)
T3 sequence (P43007 1-532): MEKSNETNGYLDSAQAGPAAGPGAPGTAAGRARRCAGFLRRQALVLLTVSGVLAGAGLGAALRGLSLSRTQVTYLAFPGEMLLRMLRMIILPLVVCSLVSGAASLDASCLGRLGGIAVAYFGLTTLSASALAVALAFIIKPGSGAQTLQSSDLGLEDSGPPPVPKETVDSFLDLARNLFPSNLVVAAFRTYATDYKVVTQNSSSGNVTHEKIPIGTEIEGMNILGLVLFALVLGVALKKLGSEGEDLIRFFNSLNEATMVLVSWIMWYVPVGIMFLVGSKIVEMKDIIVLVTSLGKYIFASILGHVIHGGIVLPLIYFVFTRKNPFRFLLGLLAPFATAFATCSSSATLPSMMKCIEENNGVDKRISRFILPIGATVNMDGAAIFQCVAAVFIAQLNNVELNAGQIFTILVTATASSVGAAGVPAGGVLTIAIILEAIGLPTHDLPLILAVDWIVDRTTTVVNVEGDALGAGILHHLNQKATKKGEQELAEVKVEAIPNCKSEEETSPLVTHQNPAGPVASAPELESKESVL
Text: Following the PCR, the product of the amplification reaction was purified using standard techniques (Saiki et al., 1988, Science 239: 487-491). The DNA then digested with the restriction enzymes KpnI and XbaI and then cloned into the polylinker of an oocyte transcription vector (POTV; see Wang el al., 1991, Nature 352: 729-731) that had been digested with KpnI and XbaI. Synthetic RNA was then transcribed in vitro from this clone using the method of Kavanaugh et al. (1992, J. Biol. Chem. 267: 22007-22009) employing bacteriophage T7 RNA polymerase (New England Biolabs, Beverly, Mass.). 20-50 nL of ASCT1 RNA (at a concentration of about 400 μg/mL) was injected into defolliculated stage V-VI Xenopus oocytes excised from female Xenopus laevis anesthetized by immersion in 3-aminobenzoic acid for 60 min. Excised oocytes were treated with collagenase II (Sigma Chemical Co., St. Louis, Mo.) in calcium-free Barth's saline solution [comprising 88 mM NaCl, 1 mM KCl, 2.4 mM NaHCO3, 0.82 mM MgSO4, 7.5 mM Tris-HCl (pH 7.6), 50 U/mL Nystatin (Sigma) and 0.1 mg/mL gentamycin (Sigma)] for 60 min., and then incubated overnight at 15° C. in 50% Leibowitz's L-15 media (Grand Island Biological Co. (GIBCO), Long Island, N.Y.). After overnight incubation the oocytes were mechanically defolliculated and then were injected with ASCT-1 RNA and incubated at 19° C. for 48 h (see Kim el al., 1991, Nature 352: 725-728 for further details of Xenopus oocyte preparation and microinjection).
Amino acid transport in such oocytes was assayed using [^3H] alanine, [^3H] serine or [^35S] cysteine (obtained from New England Nuclear, Boston, Mass.). Briefly, microinjected oocytes were […] at −60 mV using a Dagan TEV-200 clamp amplifier with an Axon Instruments (Foster City, Calif.) TL-1 A/D interface controlled by pCLAMP software (Axon Instruments) (see Kavanaugh et al., 1992, J. Biol. Chem. 267: 22007-22009 for a detailed review of this methodology) and continuously superfused with ND-96 buffer (consisting of 96 mM NaCl/2 mM KCl/1.8 mM CaCl2/1 mM MgCl2/5 mM HEPES, pH 7.5). For transport measurements, this solution was changed to a solution containing varying concentrations of the radiolabeled amino acids in ND-96 buffer.
More detailed analyses of ithe kinetics of amino acid influx were performed by least squares linear regression analysis of induced inward current ([I]) plotted as a function of substrate amino acid concentration ([S]), using the equation shown in the legend of Table II.

SMILES | Imax (maximal current)
CC(C)[C@H](N)C(=O)O [Valine] | 0.6 ± 0.11
C[C@@H](O)[C@H](N)C(=O)O [Threonine] | 1.4 ± 0.03

same assay, conditions: much higher concentrations (about 1 mM)

SMILES | effect on membrane current of ASCT1-injected oocytes
NCC(=O)O [glycine] | had no effect
CN[C@@H](C)C(=O)O [N-methylalanine] | had no effect
CC(C)C[C@H](N)C(=O)O [leucine] | had no effect
NC(=O)C[C@H](N)C(=O)O [asparagine] | had no effect
O=C(O)[C@@H]1CCCN1 [proline] | had no effect
CSCC[C@H](N)C(=O)O [methionine] | had no effect
N=C(N)NCCC[C@H](N)C(=O)O [arginine] | had no effect
NCCCC[C@H](N)C(=O)O [L-lysine] | had no effect
NC(=O)CC[C@H](N)C(=O)O [L-glutamine] | had no effect

same assay, conditions: stereospecificity

SMILES | response relative to the response produced by L-alanine
C[C@@H](N)C(=O)O [D-alanine] | 12±3%

target: T4, human EAAT1 (Homo sapiens, UniProt P43003); assay: inhibition of [3H]-L-glutamate uptake in COS-7 cells expressing EAAT1; assay type: cell-based; details: uptake of 1 μM [3H]-L-glutamate; [S] << Km, Ki does not differ significantly from measured IC50; read-out: Ki, glutamate uptake inhibition constant, EAAT1
T4 construct: expressed in transfected cells; host or cells: COS-7 cells, pCMV5 construct, DEAE-dextran transient transfection
Text: as §1, §2, §3, §4

T4 sequence (P43003 whole entry): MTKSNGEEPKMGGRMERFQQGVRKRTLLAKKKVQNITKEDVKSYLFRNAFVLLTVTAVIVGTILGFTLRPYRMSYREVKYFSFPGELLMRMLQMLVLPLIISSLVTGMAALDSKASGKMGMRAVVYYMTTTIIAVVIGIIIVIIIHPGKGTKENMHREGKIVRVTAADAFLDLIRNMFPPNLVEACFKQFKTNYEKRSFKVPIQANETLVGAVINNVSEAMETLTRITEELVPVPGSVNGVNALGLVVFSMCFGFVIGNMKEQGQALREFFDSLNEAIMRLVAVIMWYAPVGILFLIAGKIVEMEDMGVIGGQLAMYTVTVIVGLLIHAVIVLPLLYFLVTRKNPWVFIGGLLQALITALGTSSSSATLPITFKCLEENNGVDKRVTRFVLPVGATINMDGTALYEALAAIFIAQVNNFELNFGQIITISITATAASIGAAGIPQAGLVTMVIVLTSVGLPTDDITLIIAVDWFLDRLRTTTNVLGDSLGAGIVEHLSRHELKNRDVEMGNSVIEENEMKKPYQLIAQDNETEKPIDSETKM

SMILES | Ki
N[C@@H](CS(=O)(=O)O)C(=O)O [L-cysteate] | 10 ± 3 µM
